According to ChEMBL document CHEMBL1133498, “QSAR of 1,1'-(1,2-ethylenebisbenzyl)bis(4-substitutedpyridinium) dibromides as choline kinase inhibitors: a different approach for antiproliferative drug design” (Bioorg Med Chem Lett, 2000):

tested on: HT-29; assay: Compound was tested in vitro for antiproliferative activity against human HT-29 cell line; type: functional, cell-based

Row | Compound | IC50 [µM]
1 | Nc1cc[n+](Cc2ccc(CCc3ccc(C[n+]4ccc(N)cc4)cc3)cc2)cc1 | 4
2 | O=C(O)c1cc[n+](Cc2ccc(CCc3ccc(C[n+]4ccc(C(=O)O)cc4)cc3)cc2)cc1 | > 1000
3 | C[N+]1(C)CCOC(O)(c2ccc(-c3ccc(C4(O)C[N+](C)(C)CCO4)cc3)cc2)C1 (stereo unspecified) [HEMICHOLINIUM-3] | 2500
4 | c1cc(C[n+]2ccc(N3CCCCC3)cc2)ccc1CCc1ccc(C[n+]2ccc(N3CCCCC3)cc2)cc1 | 0.4
5 | CN(C)c1cc[n+](Cc2ccc(CCc3ccc(C[n+]4ccc(N(C)C)cc4)cc3)cc2)cc1 | 2
6 | c1cc(C[n+]2ccc(N3CCCC3)cc2)ccc1CCc1ccc(C[n+]2ccc(N3CCCC3)cc2)cc1 | 1
7 | N#Cc1cc[n+](Cc2ccc(CCc3ccc(C[n+]4ccc(C#N)cc4)cc3)cc2)cc1 | 200
8 | OCc1cc[n+](Cc2ccc(CCc3ccc(C[n+]4ccc(CO)cc4)cc3)cc2)cc1 | > 100
9 | Cc1cc[n+](Cc2ccc(CCc3ccc(C[n+]4ccc(C)cc4)cc3)cc2)cc1 | 20
10 | C=CCN(CC=C)c1cc[n+](Cc2ccc(CCc3ccc(C[n+]4ccc(N(CC=C)CC=C)cc4)cc3)cc2)cc1 | 0.55
11 | c1cc(C[n+]2ccc(N3CCCCCC3)cc2)ccc1CCc1ccc(C[n+]2ccc(N3CCCCCC3)cc2)cc1 | 0.4
